Test results published in patent US11103488B2, “Methods of treating autoimmune, respiratory and inflammatory disorders by inhalation of roflumilast N-oxide” (Incozen Therapeutics Pvt. Ltd., priority 2013, dated 2021).
Read-outs that look alike come from different tables or passages of the source.

Experiments:
[1] = Lung microsome metabolic stability, dog; assay type: in vitro ADME; details: dog lung microsomes, 1 μM test item, 60 minutes, NADPH
Protocol: Metabolic stability studies were conducted using rat, dog and human lung microsomes. The protocol for the studies with rat, dog, and human lung microsomes (from Xenotech, USA) is provided below.
0.4 mg protein was preincubated with 2 mM NADPH (cofactor) in phosphate buffer (pH˜7.4) for 15 minutes at […] and then added with 1 μM test item and incubated further for 60 minutes in triplicate. The reaction mixture was terminated with methanol containing an internal standard and centrifuged further to analyze the test item remaining in the supernatant by LC-MS/MS. The percent parent compound remaining was calculated in comparison with similar samples terminated at 0 minutes.

[2] = Pulmonary kinetics by intratracheal route, single dose; assay type: in vivo, Wistar rats; details: single dose 1 mg/kg IT
Protocol: (§1) Male and female Wistar rats were weighed and randomized for groups for various time points. Roflumilast N-oxide was prepared as a suspension in a suitable vehicle for intratracheal administration. For intratracheal dosing, animals were anesthetized with ketamine (50 mg/kg; i.p.) and roflumilast N-oxide was administered via an Intratracheal Microsprayer® Aerosolizer for Rat with a 0.5 ml glass syringe (Model IA-1B-R-GL500) (Penn Century, US). A volume level of 0.5 ml/kg was administered into the airway system of the rat at a dose of 1.0 mg/kg for the single dose and multiple dose study. The animals were kept under normal regular diet conditions and rat chew diet was provided ad libitum throughout the study. The blood and lung samples (all collections each of 150 μl from each animal) were collected according to the sampling schedule. Blood samples were collected from orbital sinus into the microfuge tubes containing dipotassium EDTA as an anticoagulant. Blood samples were centrifuged immediately with a speed of 1000 g for 10 minutes at 4° C. and separated plasma samples were frozen at below −80° C. and stored until analysis. The plasma and lung concentrations of roflumilast N-oxide in all samples were analyzed by LC-MS/MS (using X-Calibur 2.0.7 software) as per the established method. The samples below the lower limit of quantification (LOQ) were mentioned as (BLQ) below level of quantification in raw data and the results were tabulated accordingly. Pharmacokinetic parameters Cmax, AUC0-t, AUC0-∞, Tmax, t1/2, Kel, VZ, and CLZ were estimated for the above concentrations using WinNonlin (Phoenix 6.1 software) and the results were tabulated. Pharmacokinetic parameters in plasma were calculated from concentration data as ng/ml. Cmax and AUC values were reported in terms of ng/ml and ng·h/ml, respectively.
(§2) Pharmacokinetic parameters in the lungs were calculated from concentration data as ng/g. Cmax and AUC values were reported in terms of ng/g and ng·h/g, respectively. The lung to plasma concentration ratio was calculated by assuming equal to 1 the plasma density. The time-mean plasma concentration plots for roflumilast N-oxide were done using Graph pad Prism 5.02 software.

[3] = Pulmonary kinetics by intratracheal route, multiple dose (7 days); assay type: in vivo, Wistar rats; details: 1 mg/kg IT for 7 days; for Tmax / half-life / AUC(0-inf) / AUC(0-t) / Cmax: 1 mg/kg
Protocol: as §1, §2

[4] = tested on: neutrophil infiltration (LPS-induced neutrophilia in BALF); assay: Lipopolysaccharide (LPS) induced pulmonary neutrophilia; assay type: in vivo, female Sprague-Dawley rat; details: for ED50: Rattus norvegicus, Neutrophil, inhaled or nasal; for Percent inhibition in neutrophil infiltration: intratracheal dry powder, 30 minutes before LPS
Protocol: Roflumilast was prepared as a suspension in a suitable vehicle for oral administration. For intratracheal administration, roflumilast or roflumilast N-oxide was prepared as a dry powder mixture and administered by using a dry powder Insufflator (Penn-Century, USA) Animals were anaesthetized with ketamine and LPS solution was administered intratracheally one hour after roflumilast (at a dose of 0.3, 1, 3, and 10 mg/kg orally), or 30 minutes after roflumilast (at a dose of 10, 30 and 100 μg/kg i.t) or roflumilast N-oxide administration (at a dose of 10, 30 and 100 μg/kg, i.t). 6 hours after LPS instillation, animals were exsanguinated under anaesthesia, and then trachea were cannulated and the lungs were lavaged with 5-ml aliquots of heparinised PBS (1 unit/ml) four times through tracheal cannula (total volume 20 ml). BAL (bronchoalveolar lavage) fluid was stored at 2-8° C. until assayed for total cell and differential leukocyte count. Bronchioalveolar fluid was centrifuged (500×g for 10 minutes) and the resulting cell pellet was resuspended in 0.5 ml of heparinized saline. The total number of white blood cells were determined in BAL fluid using a blood cell counter and were adjusted to 1×10^6 cell/ml. Differential cell count was calculated manually. One hundred microliters of the cell suspension was centrifuged using cytospin 3 to prepare a cell smear. The cell smear was stained with a blood staining solution for differentiation and slides were microscopically observed to identify eosinophil according to their morphological characteristics. The number of each cell type among 300 white blood cells in the cell smear was determined and expressed as a percentage. The total number of neutrophils in each BAL fluid was calculated.
Roflumilast and roflumilast N-oxide were administered intratracheally (i.t) at doses of 100, 30, and 10 μg/kg as 1:200; 1:500; and 1:1000 drug:lactose blends, respectively.

## O=C(Nc1c(Cl)c[n+]([O-])cc1Cl)c1ccc(OC(F)F)c(OCC2CC2)c1 [Roflumilast N-oxide]
[1]
  Percent Parent Compound Remaining, Dog: 98.3%
[2]; both sexes, Wistar, rat, inhaled or intranasal, lung, read-out: Tmax, Lung, N-Oxide
  Tmax: 15 min
[2]; both sexes, Wistar, rat, inhaled or intranasal, lung, read-out: t1/2, Lung, N-Oxide (converted)
  half-life: 152 min
[2]; both sexes, Wistar, rat, inhaled or intranasal, plasma, read-out: AUC0-t, Plasma, N-Oxide
  AUC(0-t): 4160 ng·h/mL
[2]; both sexes, Wistar, rat, inhaled or intranasal, plasma, read-out: Cmax, Plasma, N-Oxide
  Cmax: 530 ng/mL
[2]; both sexes, Wistar, rat, inhaled or intranasal, plasma, read-out: Tmax, Plasma, N-Oxide
  Tmax: 15 min
[2]; both sexes, Wistar, rat, inhaled or intranasal, plasma, read-out: t1/2, Plasma, N-Oxide (converted)
  half-life: 326 min
[2]; lung
  AUC0-inf, Lung, N-Oxide: 47960 ng·h/g
  AUC0-t, Lung, N-Oxide: 47880 ng·h/g
  Cmax, Lung, N-Oxide: 26350 ng/g
[3]; lung, Day-1
  AUC0-inf, Lung, Day-1, N-Oxide: 47.96 µg·h/g
  AUC0-t, Lung, Day-1, N-Oxide: 47.88 µg·h/g
  Cmax, Lung, Day-1, N-Oxide: 26.35 µg/g
[3]; lung, Day-7
  AUC0-inf, Lung, Day-7, N-Oxide: 18.04 µg·h/g
  AUC0-t, Lung, Day-7, N-Oxide: 17.96 µg·h/g
  AUCtau, Lung, Day-7, N-Oxide: 18.51 µg·h/g
  Cavg, Lung, Day-7, N-Oxide: 0.77 µg/g
  Cmax, Lung, Day-7, N-Oxide: 23.15 µg/g
  Cmin, Lung, Day-7, N-Oxide: 0.00 µg/g
[3]; plasma, Day-7
  Cavg, Plasma, Day-7, N-Oxide: 120 ng/mL
  Cmin, Plasma, Day-7, N-Oxide: 0 ng/mL
[3]; both sexes, Wistar, rat, inhaled or intranasal, plasma, Day-7, read-out: AUCtau, Plasma, Day-7, N-Oxide
  AUC: 2810 ng·h/mL
[3]; both sexes, Wistar, rat, lung, inhaled or intranasal, lung, Day-1, read-out: Tmax, Lung, Day-1, N-Oxide
  Tmax: 15 min
[3]; both sexes, Wistar, rat, lung, inhaled or intranasal, lung, Day-1, read-out: t1/2, Lung, Day-1, N-Oxide (converted)
  half-life: 152 min
[3]; both sexes, Wistar, rat, lung, inhaled or intranasal, lung, Day-7, read-out: Tmax, Lung, Day-7, N-Oxide
  Tmax: 15 min
[3]; both sexes, Wistar, rat, lung, inhaled or intranasal, lung, Day-7, read-out: t1/2, Lung, Day-7, N-Oxide (converted)
  half-life: 48.6 min
[3]; both sexes, Wistar, rat, plasma, inhaled or intranasal, plasma, Day-1, read-out: AUC0-inf, Plasma, Day-1, N-Oxide
  AUC(0-inf): 4350 ng·h/mL
[3]; both sexes, Wistar, rat, plasma, inhaled or intranasal, plasma, Day-1, read-out: AUC0-t, Plasma, Day-1, N-Oxide
  AUC(0-t): 4160 ng·h/mL
[3]; both sexes, Wistar, rat, plasma, inhaled or intranasal, plasma, Day-1, read-out: Cmax, Plasma, Day-1, N-Oxide
  Cmax: 530 ng/mL
[3]; both sexes, Wistar, rat, plasma, inhaled or intranasal, plasma, Day-1, read-out: Tmax, Plasma, Day-1, N-Oxide
  Tmax: 15 min
[3]; both sexes, Wistar, rat, plasma, inhaled or intranasal, plasma, Day-1, read-out: t1/2, Plasma, Day-1, N-Oxide (converted)
  half-life: 326 min
[3]; both sexes, Wistar, rat, plasma, inhaled or intranasal, plasma, Day-7, read-out: AUC0-inf, Plasma, Day-7, N-Oxide
  AUC(0-inf): 2390 ng·h/mL
[3]; both sexes, Wistar, rat, plasma, inhaled or intranasal, plasma, Day-7, read-out: AUC0-t, Plasma, Day-7, N-Oxide
  AUC(0-t): 2250 ng·h/mL
[3]; both sexes, Wistar, rat, plasma, inhaled or intranasal, plasma, Day-7, read-out: Cmax, Plasma, Day-7, N-Oxide
  Cmax: 560 ng/mL
[3]; both sexes, Wistar, rat, plasma, inhaled or intranasal, plasma, Day-7, read-out: Tmax, Plasma, Day-7, N-Oxide
  Tmax: 60 min
[3]; both sexes, Wistar, rat, plasma, inhaled or intranasal, plasma, Day-7, read-out: t1/2, Plasma, Day-7, N-Oxide (converted)
  half-life: 91.8 min
[4]; Intratracheal (Table 5), read-out: ED50 in Lipopolysaccharide induced pulmonary neutrophilia in female Sprague-Dawley rat model
  ED50: 0.027 mg/kg
[4]; intratracheal administration, read-out: 50% inhibition (ED50) dose, neutrophil infiltration
  ED50: 0.027 mg/kg
[4]; 10 μg/kg
  Percent inhibition in neutrophil infiltration: 37.52%
[4]; 30 μg/kg
  Percent inhibition in neutrophil infiltration: 49.66%
[4]; 100 μg/kg
  Percent inhibition in neutrophil infiltration: 69.48%
